In patent publication US12391737B2, “Soluble NPY2 receptor agonists” (Boehringer Ingelheim International GmbH, priority 2020, dated 2025):

How the values were obtained:
[1] = Solubility determination; details: for Sol6: pH 6; for Sol7: pH 7
Summary of the method: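 Solubility is derived from the ratio of reversed-phase peak areas, filtered sample over a control dissolved at 1 mg/ml in 50% acetonitrile. Peptides are agitated for 2 hours at room temperature in 0.1 M sodium diphosphate at pH 6.4 or 7.0, aiming at 10 mg/ml.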

[2] = biological target: T1, Human Neuropeptide Y2 Receptor (Homo sapiens, UniProt P49146); test: Radioligand binding competition assay (RLB); details: Table 3, 125I-PYY(1-36) competition; read-out: Ki
T1 construct: purchased CHEMICON HTS066M
T1 sequence (P49146 1-381): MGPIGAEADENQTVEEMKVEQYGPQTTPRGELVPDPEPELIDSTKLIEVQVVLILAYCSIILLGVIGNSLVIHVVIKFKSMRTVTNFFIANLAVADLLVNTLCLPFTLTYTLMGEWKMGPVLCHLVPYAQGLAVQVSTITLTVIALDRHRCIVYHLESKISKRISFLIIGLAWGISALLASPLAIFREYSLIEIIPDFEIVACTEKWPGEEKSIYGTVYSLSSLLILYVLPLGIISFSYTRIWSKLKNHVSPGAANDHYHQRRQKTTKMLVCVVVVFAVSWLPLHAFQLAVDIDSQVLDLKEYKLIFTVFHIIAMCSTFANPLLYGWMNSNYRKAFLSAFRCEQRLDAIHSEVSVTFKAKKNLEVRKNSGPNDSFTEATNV
Summary of the method: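 Displacement of radioligand is measured after 2 h at room temperature with receptor membranes in Mg2+/Ca2+ HEPES buffer, pH 7.4. Filter-bound radioactivity is counted and IC50 obtained from curve fitting.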

Row | Sol6 [1] | Sol7 [1] | Ki [2] | Compound
1 | 9.8 mg/mL | 9.9 mg/mL | 1.98 nM | CC(C)CC(=O)N[C@@H](C)C(=O)N1CCC[C@H]1C(=O)N[C@@H](CCC(=O)O)C(=O)N[C@@H](CCCCNC(=O)CCCCCNC(=O)CC[C@H](NC(=O)CCCCCCCCCCCCCCCCC(=O)O)C(=O)O)C(=O)N1CCC[C@H]1C(=O)N[C@@H](CCC(=O)O)C(=O)N[C@@H](CCC(=O)O)C(=O)N1CCC[C@H]1C(=O)N[C@@H](C)C(=O)N[C@H](C(=O)N1CCC[C@H]1C(=O)N[C@@H](CCC(=O)O)C(=O)N[C@@H](CCC(=O)O)C(=O)N[C@@H](CC(C)C)C(=O)N[C@@H](CCC(N)=O)C(=O)N[C@@H](CCCNC(=N)N)C(=O)N[C@@H](Cc1ccc(O)cc1)C(=O)N[C@@H](Cc1ccc(O)cc1)C(=O)N[C@H](C(=O)N[C@@H](CO)C(=O)N[C@@H](CC(C)C)C(=O)N[C@@H](CCCNC(=N)N)C(=O)N[C@@H](Cc1c[nH]cn1)C(=O)N[C@@H](Cc1ccc(O)cc1)C(=O)N[C@@H](Cc1ccc(O)cc1)C(=O)N[C@@H](CC(N)=O)C(=O)N[C@@H](Cc1c[nH]c2ccccc12)C(=O)N[C@@H](CC(C)C)C(=O)N[C@H](C(=O)N[C@@H](CCCNC(=N)N)C(=O)N[C@@H](CCC(N)=O)C(=O)N[C@@H](CCCNC(=N)N)C(=O)N[C@@H](Cc1ccc(O)cc1)C(N)=O)[C@@H](C)O)C(C)C)[C@@H](C)O [Compound 42, N{alpha-4}-(3-methylbutanoyl)-N{epsilon-7}-(6-[(4S)-4-carboxy-4-(17-carboxyheptadecanamido)butanamido]hexanoyl)[4A,7K,9E,11P,13T,18Q,22V,28Y,30W,31L]-hPYY(4-36)]
2 | 0.0 mg/mL | 0.2 mg/mL | 1.49 nM | CC[C@H](C)[C@H](NC(=O)[C@H](CCC(=O)O)NC(=O)[C@H](CCC(=O)O)NC(=O)[C@@H]1CCCN1C(=O)[C@@H](NC(=O)[C@H](C)NC(=O)[C@H](C)NC(=O)[C@H](CCC(=O)O)NC(=O)[C@H](CCC(=O)O)NC(=O)[C@@H]1CCCN1C(=O)[C@H](CCCCNC(=O)CCCCCNC(=O)CC[C@H](NC(=O)CCCCCCCCCCCCCCCCC(=O)O)C(=O)O)NC(=O)[C@H](C)NC(=O)[C@@H]1CCCN1C(=O)[C@H](C)NC(=O)CC(C)C)[C@@H](C)O)C(=O)N[C@@H](CCC(N)=O)C(=O)N[C@@H](CCCNC(=N)N)C(=O)N[C@@H](Cc1ccc(O)cc1)C(=O)N[C@@H](Cc1ccc(O)cc1)C(=O)N[C@H](C(=O)N[C@@H](C)C(=O)N[C@@H](CC(C)C)C(=O)N[C@@H](CCCNC(=N)N)C(=O)N[C@@H](Cc1c[nH]cn1)C(=O)N[C@@H](Cc1ccc(O)cc1)C(=O)N[C@@H](Cc1ccc(O)cc1)C(=O)N[C@@H](CC(N)=O)C(=O)N[C@@H](Cc1c[nH]c2ccccc12)C(=O)N[C@@H](CC(C)C)C(=O)N[C@H](C(=O)N[C@@H](CCCNC(=N)N)C(=O)N[C@@H](CCC(N)=O)C(=O)N[C@@H](CCCNC(=N)N)C(=O)N[C@@H](Cc1ccc(O)cc1)C(N)=O)[C@@H](C)O)C(C)C [Compound 120, N{alpha-4}-(3-methylbutanoyl)-N{epsilon-7}-(6-[(4S)-4-carboxy-4-(17-carboxyheptadecanamido)butanamido]hexanoyl)-[4A,6A,7K,9E,11A,13T,17I,18Q,22V,23A,28Y,30W,31L]-hPYY(4-36)]
3 | 9.9 mg/mL | 10.0 mg/mL | 4.28 nM | CC[C@H](C)[C@H](NC(=O)[C@H](CCC(=O)O)NC(=O)[C@H](CCC(=O)O)NC(=O)[C@@H]1CCCN1C(=O)[C@H](CCC(=O)O)NC(=O)[C@H](C)NC(=O)[C@H](CC(=O)O)NC(=O)[C@H](CCC(=O)O)NC(=O)[C@H](CCC(=O)O)NC(=O)[C@@H]1CCCN1C(=O)[C@H](CCCCNC(=O)CCCCCNC(=O)CC[C@H](NC(=O)CCCCCCCCCCCCCCCCC(=O)O)C(=O)O)NC(=O)[C@H](CCC(=O)O)NC(=O)[C@@H]1CCCN1C(=O)[C@H](C)NC(=O)CC(C)C)C(=O)N[C@@H](CCC(N)=O)C(=O)N[C@@H](CCCNC(=N)N)C(=O)N[C@@H](Cc1ccc(O)cc1)C(=O)N[C@@H](Cc1ccc(O)cc1)C(=O)N[C@H](C(=O)N[C@@H](CO)C(=O)N[C@@H](CC(C)C)C(=O)N[C@@H](CCCNC(=N)N)C(=O)N[C@@H](Cc1c[nH]cn1)C(=O)N[C@@H](Cc1ccc(O)cc1)C(=O)N[C@@H](Cc1ccc(O)cc1)C(=O)N[C@@H](CC(N)=O)C(=O)N[C@@H](Cc1c[nH]c2ccccc12)C(=O)N[C@@H](CC(C)C)C(=O)N[C@H](C(=O)N[C@@H](CCCNC(=N)N)C(=O)N[C@@H](CCC(N)=O)C(=O)N[C@@H](CCCNC(=N)N)C(=O)N[C@@H](Cc1ccc(O)cc1)C(N)=O)[C@@H](C)O)C(C)C [Compound 112, N{alpha-4}-(3-methylbutanoyl)-N{epsilon-7}-(6-[(4S)-4-carboxy-4-(17-carboxyheptadecanamido)butanamido]hexanoyl)-[4A,7K,9E,13E,17I,18Q,22V,28Y,30W,31L]-hPYY(4-36)]
4 | 9.2 mg/mL | 9.7 mg/mL | 2.05 nM | CC(C)CC(=O)N[C@@H](C)C(=O)N1CCC[C@H]1C(=O)N[C@@H](C)C(=O)N[C@@H](CCCCNC(=O)CCCCCNC(=O)CC[C@H](NC(=O)CCCCCCCCCCCCCCCCC(=O)O)C(=O)O)C(=O)N1CCC[C@H]1C(=O)N[C@@H](CCC(=O)O)C(=O)N[C@@H](CCC(=O)O)C(=O)N[C@@H](CC(=O)O)C(=O)N[C@@H](C)C(=O)N[C@@H](CO)C(=O)N1CCC[C@H]1C(=O)N[C@@H](CCC(=O)O)C(=O)N[C@@H](CCC(=O)O)C(=O)N[C@@H](CC(C)C)C(=O)N[C@@H](CCC(N)=O)C(=O)N[C@@H](CCCNC(=N)N)C(=O)N[C@@H](Cc1ccc(O)cc1)C(=O)N[C@@H](Cc1ccc(O)cc1)C(=O)N[C@H](C(=O)N[C@@H](CCC(=O)O)C(=O)N[C@@H](CC(C)C)C(=O)N[C@@H](CCCNC(=N)N)C(=O)N[C@@H](Cc1c[nH]cn1)C(=O)N[C@@H](Cc1ccc(O)cc1)C(=O)N[C@@H](Cc1ccc(O)cc1)C(=O)N[C@@H](CC(N)=O)C(=O)N[C@@H](Cc1c[nH]c2ccccc12)C(=O)N[C@@H](CC(C)C)C(=O)N[C@H](C(=O)N[C@@H](CCCNC(=N)N)C(=O)N[C@@H](CCC(N)=O)C(=O)N[C@@H](CCCNC(=N)N)C(=O)N[C@@H](Cc1ccc(O)cc1)C(N)=O)[C@@H](C)O)C(C)C [Compound 166, N{alpha-4}-(3-methylbutanoyl)-N{epsilon-7}-(6-[(4S)-4-carboxy-4-(17-carboxyheptadecanamido)butanamido]hexanoyl)-[4A,6A,7K,9E,18Q,22V,23E,28Y,30W,31L]-hPYY(4-36)]
